This is an account of results in article PMC12040169 (PLOS Biology, 2025).

This series is described as follows: in vitro. The note with it: human, hela cells, % viability.
One may read the viability as a read-out of living cells in per cent, often relative to untreated cells. On to `O=c1[nH]ccn1CCNc1ccc(-c2cccc(Cl)c2Cl)cn1` [CBK037745], for which the viability at 28.5 h, 10 µM was 93.1%. For the compound `COc1ccc(C(C)C)cc1-c1cc(Nc2cc(OC)c(OC)c(OC)c2)n2nccc2n1` [CBK037746], the viability at 28.5 h, 10 µM was 103%. Then `COc1ccc(C(=O)OC(C)(C)C)c(-c2cncc(NCc3ccco3)n2)c1` [CBK037751], with 87.8%. Then `CCN(CC)CCN1CCN(c2cc(-c3ccc(OC(F)(F)F)cc3)ncn2)CC1` [CBK037756], with 96.3%; and `c1nc(Nc2ccc3[nH]ccc3c2)cc(-c2ccc3c(c2)OCO3)n1` [CBK037761], with 94.4%; and `c1ccc(CCNc2cc(-c3cccc4ccccc34)ncn2)nc1` [CBK037762], with 94.5%. Regarding `CN(C)CCN(C)c1cc(-c2cccc(-c3ccccc3)c2)ncn1` [CBK037763], the viability at 28.5 h, 10 µM is 99.4%. For the compound `c1coc(-c2ccc(Nc3ccc4c(c3)OCCO4)nc2)c1` [CBK037765], the viability at 28.5 h, 10 µM stood at 96.9%.

Turning to `O=C(O)CCc1ccc(-c2ccc(Nc3cccnc3)nc2)cc1` [CBK037768], the viability at 28.5 h, 10 µM came out at 106%. For `COc1ccccc1-c1cccc(NCC(c2cccnc2)N(C)C)n1` (stereo not shown) [CBK037770], the viability at 28.5 h, 10 µM is 103%. The value for `Cc1ccc(-c2ccc(N3CCN(C(=O)c4ccco4)CC3)nc2)cc1C` [CBK037775] was 106%; that for `O=C(O)c1cccc(-c2ccc(Nc3cccc(NC(=O)c4ccncc4)c3)nc2)c1` [CBK037776] was 101%; that for `CCC(CO)Nc1cncc(-c2cccc(O)c2)n1` (stereo not shown) [CBK037777] was 96%.

In the case of `N#Cc1ccc(-c2cc(NCCc3ccncc3)ncn2)cc1` [CBK037787], the viability at 28.5 h, 10 µM was 98.1%.

With `Cc1ccc(S(=O)(=O)Nc2ccc(Nc3cc(-c4ccsc4)ncn3)cc2)cc1` [CBK037792], the viability at 28.5 h, 10 µM worked out at 96.5%. With `c1ccc(COc2ccccc2-c2cc(N3CCN(c4ccccn4)CC3)ncn2)cc1` [CBK037793], the viability at 28.5 h, 10 µM was found to be 97.4%. Consider `COc1cc(CNc2cc(-c3ccsc3)ncn2)cc(OC)c1OC` [CBK037794], for which the viability at 28.5 h, 10 µM came out at 92%. With `Clc1cccc(-c2cccc(Nc3cccnc3)n2)c1Cl` [CBK037800], the viability at 28.5 h, 10 µM came out at 102%. `COc1cncc(-c2ccc(N3CCN(C(=O)c4ccco4)CC3)nc2)c1` [CBK037801]: the viability at 28.5 h, 10 µM was 96.7%. On to `CC(C)(C)OC(=O)NCc1ccc(-c2ccc(Nc3cccnc3)nc2)cc1` [CBK037804], for which the viability at 28.5 h, 10 µM turned out to be 95.3%.

Take `COc1ccccc1-c1cc(Nc2ccc(NS(=O)(=O)c3ccc(C)cc3)cc2)ncn1` [CBK037819]: the viability at 28.5 h, 10 µM came out at 113%.

`COc1cc(CNc2cc(-c3ccc4c(c3)OCO4)ncn2)cc(OC)c1OC` [CBK037822]: the viability at 28.5 h, 10 µM came to 98.9%. For the compound `c1ccc(COc2ccccc2-c2cc(NCCc3ccccn3)ncn2)cc1` [CBK037826], the viability at 28.5 h, 10 µM turned out to be 102%. The value for `CCCC/C=C/c1cncc(NC2CCC(N)CC2)n1` (stereo not shown) [CBK037827] was 97.2%; that for `COc1ccc(-c2cncc(N(C)CCN(C)C)n2)cc1` [CBK037832] was 101%. The value for `O=C(c1ccco1)N1CCN(c2cc(-c3cccnc3)ncn2)CC1` [CBK037833] was 101%; that for `CN(C)c1ccc(Nc2cc(-c3cccc4ccccc34)ncn2)cc1` [CBK037835] was 46.8%; that for `COc1cc(-c2cc(N3CCN(CCN4CCCC4)CC3)ncn2)cc(OC)c1OC` [CBK037841] was 102%. Turning to `CC(C)(C)OC(=O)NCc1ccc(-c2cc(Nc3cccc(Cl)c3)ncn2)cc1` [CBK037842], the viability at 28.5 h, 10 µM worked out at 92.8%. On to `c1ccc(Oc2ccccc2-c2cc(NCCc3c[nH]cn3)ncn2)cc1` [CBK037845], for which the viability at 28.5 h, 10 µM worked out at 82.9%. On to `COc1cc(-c2cncc(NCC(C)(C)CO)n2)cc(OC)c1OC` [CBK037854], for which the viability at 28.5 h, 10 µM was 105%. `CC(CCCC(C)(C)O)Nc1cncc(-c2cccc(Cl)c2)n1` (stereo not shown) [CBK037857]: the viability at 28.5 h, 10 µM was 90.1%.

As to `Oc1cccc(-c2cncc(NCCCN3CCOCC3)n2)c1` [CBK037858], the viability at 28.5 h, 10 µM worked out at 89.1%. Turning to `COc1ncc(-c2cn3ccnc3c(N3CCN(CCO)CC3)n2)c(OC)n1` [CBK037869], the viability at 28.5 h, 10 µM was 107%. With `COc1ncc(-c2cncc(N3CCN(c4ccccc4C#N)CC3)n2)c(OC)n1` [CBK037872], the viability at 28.5 h, 10 µM was found to be 105%.

`OCCN1CCN(c2nc(-c3cccnc3)cn3ccnc23)CC1` [CBK037887]: the viability at 28.5 h, 10 µM amounted to 99.3%. Regarding `COc1ccc(C(C)C)cc1-c1cncc(N2CCCCC2CCO)n1` (stereo not shown) [CBK037897], the viability at 28.5 h, 10 µM is 94.4%. As to `COc1ccc(C(C)C)cc1-c1cncc(N2CCC(C(=O)O)CC2)n1` [CBK037900], the viability at 28.5 h, 10 µM came out at 104%. For the compound `OCCN(CCO)c1cncc(-c2cccc(C(F)(F)F)c2)n1` [CBK037917], the viability at 28.5 h, 10 µM stood at 109%. In the case of `CCCNc1cncc(-c2cccnc2)n1` [CBK037921], the viability at 28.5 h, 10 µM is 99.1%. Take `COc1ccc(C(=O)OC(C)(C)C)c(-c2cncc(NC3CCC(N)CC3)n2)c1` (stereo not shown) [CBK037922]: the viability at 28.5 h, 10 µM was determined as 109%. On to `CC(=O)Nc1cccc(-c2cn3ccnc3c(N3CCN(C)CC3)n2)c1` [CBK037930], for which the viability at 28.5 h, 10 µM is 95.2%. The value for `CCCC/C=C/c1cncc(NCc2ccc(OC)cc2)n1` [CBK037933] was 96.7%; that for `COc1ccc(-c2cncc(N[C@@H](CO)C(C)C)n2)cc1` [CBK037941] was 82.8%. Then `CCCC/C=C/c1cncc(Nc2ccccc2)n1` [CBK037942], with 103%. Consider `c1ccc(Nc2nc(-c3ccco3)cn3ccnc23)cc1` [CBK037947], for which the viability at 28.5 h, 10 µM is 86.9%. As to `c1ccc(CNc2nc(-c3ccco3)cn3ccnc23)cc1` [CBK037955], the viability at 28.5 h, 10 µM was determined as 90.6%. With `OCc1ccccc1-c1cn2ccnc2c(Nc2ccc(N3CCOCC3)cc2)n1` [CBK037956], the viability at 28.5 h, 10 µM was 85.8%.

Regarding `CC(=O)c1ccc(-c2cn3ccnc3c(N3CCN(C)CC3)n2)s1` [CBK037957], the viability at 28.5 h, 10 µM was 94.4%. As for `CC(=O)Nc1cccc(-c2nccnc2NCC2CC2)c1` [CBK037962], the viability at 28.5 h, 10 µM stood at 90.4%. As to `OCc1ccccc1-c1cn2ccnc2c(N[C@@H]2CCN(Cc3ccccc3)C2)n1` [CBK037969], the viability at 28.5 h, 10 µM amounted to 104%. Then `CC(=O)Nc1ccc(NC(=O)c2cnc(-c3ccc(F)cc3)c(-c3ccco3)c2)cc1` [CBK037977], with 98.8%. For the compound `CC(=O)c1ccc(-c2nccnc2NCc2ccc(C(F)(F)F)cc2)s1` [CBK037983], the viability at 28.5 h, 10 µM was found to be 99.2%. On to `CC(C)[C@H](CO)Nc1nccnc1-c1ccccc1F` [CBK037987], for which the viability at 28.5 h, 10 µM was determined as 106%. Turning to `COc1ncc(-c2nccnc2NCc2cccc(Cl)c2)c(OC)n1` [CBK037990], the viability at 28.5 h, 10 µM is 90%. Take `CC(=O)Nc1ccc(Nc2nc(-c3ccc(O)cc3)cn3ccnc23)cc1` [CBK037992]: the viability at 28.5 h, 10 µM is 94.8%. In the case of `COc1cccc(CNc2nccnc2-c2ccccc2F)c1OC` [CBK037993], the viability at 28.5 h, 10 µM turned out to be 98.1%.

With `CN(Cc1ccccc1)c1nccnc1-c1ccc(F)c(Cl)c1` [CBK037997], the viability at 28.5 h, 10 µM is 107%. On to `OCc1ccccc1-c1cn2ccnc2c(Nc2ccccc2)n1` [CBK037999], for which the viability at 28.5 h, 10 µM stood at 108%. Consider `CCCC/C=C/c1nccnc1NCCCO` [CBK038006], for which the viability at 28.5 h, 10 µM worked out at 102%. Consider `COCCNc1nccnc1-c1ccsc1` [CBK038008], for which the viability at 28.5 h, 10 µM was found to be 95.4%. The value for `CN1CCCN(c2nccnc2-c2ccccc2CO)CC1` [CBK038014] was 106%; that for `COc1cccc(OC)c1-c1cn2ccnc2c(NC2CC2)n1` [CBK038020] was 104%; that for `CCCC/C=C/c1cn2ccnc2c(N2CCOCC2)n1` [CBK038031] was 100%.

With `COc1cc(Nc2nc(-c3cccc(OC(F)(F)F)c3)cn3ccnc23)cc(OC)c1OC` [CBK038036], the viability at 28.5 h, 10 µM came to 101%.

Take `OCC1CCCN1c1nccnc1-c1ccccc1F` (stereo not shown) [CBK038037]: the viability at 28.5 h, 10 µM was found to be 104%. Consider `O=C(O)c1cccc(-c2nccnc2NCC2CC2)c1` [CBK038043], for which the viability at 28.5 h, 10 µM worked out at 95.5%. For `COCCNc1nccnc1-c1ccccc1F` [CBK038044], the viability at 28.5 h, 10 µM stood at 97.6%. On to `CN1CCN(c2nc(-c3ccco3)cn3ccnc23)CC1` [CBK038045], for which the viability at 28.5 h, 10 µM is 83.7%. Take `OCc1ccccc1-c1nccnc1NCc1ccc2c(c1)OCO2` [CBK038046]: the viability at 28.5 h, 10 µM stood at 95.7%.

In the case of `c1ccc2c(-c3cn4ccnc4c(NC4CCOCC4)n3)cccc2c1` [CBK038047], the viability at 28.5 h, 10 µM is 89.9%. Take `COc1ccc(-c2nccnc2NCC2CC2)cc1` [CBK038048]: the viability at 28.5 h, 10 µM came to 95.7%.

On to `COc1ccc(C(C)C)cc1-c1cn2ccnc2c(Nc2cccc(OC(F)(F)C(F)F)c2)n1` [CBK038049], for which the viability at 28.5 h, 10 µM was found to be 95.9%. In the case of `CN1CCN(c2nccnc2-c2ccco2)CC1` [CBK038050], the viability at 28.5 h, 10 µM is 86.7%. Then `O=C(O)c1cccc(-c2cn3ccnc3c(N3CCOCC3)n2)c1` [CBK038053], with 84%. On to `Clc1ccccc1-c1nccnc1NCCc1ccncc1` [CBK038055], for which the viability at 28.5 h, 10 µM was 98.1%. Consider `c1coc(-c2nccnc2NCc2ccncc2)c1` [CBK038059], for which the viability at 28.5 h, 10 µM is 105%. On to `COc1cc(CNc2nccnc2-c2cccnc2)cc(OC)c1` [CBK038061], for which the viability at 28.5 h, 10 µM came to 105%. Then `COc1cc(-c2nccnc2NCc2ccc(OC(F)(F)F)cc2)cc(OC)c1OC` [CBK038063], with 117%; and `COc1ccc(-c2cc(C(=O)Nc3cccc(C(=O)O)c3)cnc2-c2ccc(F)cc2)cn1` [CBK038064], with 91.3%. Then `CS(=O)(=O)CCNC(=O)c1cnc(-c2ccc(F)cc2)c(-c2cccnc2)c1` [CBK038066], with 88%; and `CN(Cc1ccccc1)c1nccnc1-c1ccc(CO)cc1` [CBK038067], with 101%.
